Laboratory results published in PubChem BioAssay AID330 (DTP/NCI, 2004).
“And” between values parts separate entries of the source, which are not always exact repeats. Equal values may be shown once. Inconclusive results and toxic doses are left out.

Tested on: P388 leukemia ip, CD2F1 mice, survival T/C
Assay: NCI In Vivo Anticancer Drug Screen. Data for tumor model P388 Leukemia (intraperitoneal) in CD2F1 (CDF1) mice
Settings: endpoint: median survival time, higher = longer survival
Procedure, shortened: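 Mice carrying the transplanted tumor received test compound or vehicle. Survival was recorded in each group, and the value is the treated-group measurement divided by that of the vehicle-treated control group.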

[1] = dose: 60.0 mg/kg/injection, schedule: Q01DX005 (ip), vehicle: saline with Tween-80
[2] = dose: 120.0 mg/kg/injection, schedule: Q01DX005 (ip), vehicle: saline with Tween-80
[3] = dose: 240.0 mg/kg/injection, schedule: Q01DX005 (ip), vehicle: saline with Tween-80
[4] = dose: 50.0 mg/kg/injection, schedule: Q01DX009 (ip), vehicle: saline
[5] = dose: 100.0 mg/kg/injection, schedule: Q01DX009 (ip), vehicle: saline

COC(c1ccccc1)C1(O)CCN(C)CC1 (centres undefined)
T/C (dose: 72.0 mg/kg/injection, schedule: Q04DX002 (ip), vehicle: Klucel (hydroxypropylcellulose) (HPC)): 98 % of control
T/C (dose: 144.0 mg/kg/injection, schedule: Q04DX002 (ip), vehicle: Klucel (hydroxypropylcellulose) (HPC)): 97 % of control
T/C (dose: 288.0 mg/kg/injection, schedule: Q04DX002 (ip), vehicle: Klucel (hydroxypropylcellulose) (HPC)): 98 % of control

Cc1nc2scc(-c3ccccc3)n2c(=O)c1CN1CCOCC1
T/C (dose: 37.5 mg/kg/injection, schedule: Q04DX002 (ip), vehicle: Klucel (hydroxypropylcellulose) (HPC)): 106 % of control
T/C (dose: 75.0 mg/kg/injection, schedule: Q04DX002 (ip), vehicle: Klucel (hydroxypropylcellulose) (HPC)): 97 % of control
T/C (dose: 150.0 mg/kg/injection, schedule: Q04DX002 (ip), vehicle: Klucel (hydroxypropylcellulose) (HPC)): 103 % of control

CCN(CC)C(C)=S
T/C [1]: 103 % of control
T/C [2]: 110 % of control
T/C [3]: 104 % of control

COc1ccc(CN2COc3c(ccc4ccccc34)C2)cc1
T/C (dose: 100.0 mg/kg/injection, schedule: Q04DX003 (ip), vehicle: Klucel (hydroxypropylcellulose) (HPC)): 97 % of control
T/C (dose: 200.0 mg/kg/injection, schedule: Q04DX003 (ip), vehicle: Klucel (hydroxypropylcellulose) (HPC)): 96 % of control
T/C (dose: 400.0 mg/kg/injection, schedule: Q04DX003 (ip), vehicle: Klucel (hydroxypropylcellulose) (HPC)): 100 % of control

COc1cccc2c1C(=O)c1c(O)c3c(c(O)c1C2=O)CC(O)(C(C)=O)CC3OC1CC(NC(=O)C(CCCCN)NC(=O)C2CCCN2)C(O)C(C)O1 (centres undefined)
T/C (dose: 2.5 mg/kg/injection, schedule: Q04DX003 (ip), vehicle: water): 93 % of control
T/C (dose: 5.0 mg/kg/injection, schedule: Q04DX003 (ip), vehicle: water): 98 % of control
T/C (dose: 10.0 mg/kg/injection, schedule: Q04DX003 (ip), vehicle: water): 99 % of control and 109 % of control
T/C (dose: 20.0 mg/kg/injection, schedule: Q04DX003 (ip), vehicle: water): 110 % of control and 118 % of control
T/C (dose: 40.0 mg/kg/injection, schedule: Q04DX003 (ip), vehicle: water): 121 % of control and 123 % of control
T/C (dose: 80.0 mg/kg/injection, schedule: Q04DX003 (ip), vehicle: water): 166 % of control

CC(=O)Nc1ccc(S(=O)(=O)Oc2noc3ccc(S(N)(=O)=O)cc23)cc1
T/C (dose: 100.0 mg/kg/injection, schedule: Q04DX002 (ip), vehicle: Klucel (hydroxypropylcellulose) (HPC)): 102 % of control
T/C (dose: 200.0 mg/kg/injection, schedule: Q04DX002 (ip), vehicle: Klucel (hydroxypropylcellulose) (HPC)): 107 % of control
T/C (dose: 400.0 mg/kg/injection, schedule: Q04DX002 (ip), vehicle: Klucel (hydroxypropylcellulose) (HPC)): 109 % of control

COC(=O)CC(C(=O)CSC(S(=O)(=O)c1ccccc1)S(=O)(=O)c1ccccc1)C(=O)OC (centres undefined)
T/C (dose: 50.0 mg/kg/injection, schedule: Q01DX005 (ip), vehicle: Klucel (hydroxypropylcellulose) (HPC)): 99 % of control
T/C (dose: 100.0 mg/kg/injection, schedule: Q01DX005 (ip), vehicle: Klucel (hydroxypropylcellulose) (HPC)): 101 % of control
T/C (dose: 200.0 mg/kg/injection, schedule: Q01DX005 (ip), vehicle: Klucel (hydroxypropylcellulose) (HPC)): 100 % of control

O=C1NC(=O)N(/N=C/c2ccc(-c3ccc(Cl)c(Cl)c3)o2)C1O (centres undefined)
T/C (dose: 50.0 mg/kg/injection, schedule: Q04DX002 (ip), vehicle: saline with Tween-80): 100 % of control
T/C (dose: 100.0 mg/kg/injection, schedule: Q04DX002 (ip), vehicle: saline with Tween-80): 99 % of control
T/C (dose: 200.0 mg/kg/injection, schedule: Q04DX002 (ip), vehicle: saline with Tween-80): 101 % of control

O=c1[nH]nc(SCc2ccc(Cl)cc2Cl)c(=O)[nH]1
T/C (dose: 6.25 mg/kg/injection, schedule: Q01DX005 (ip), vehicle: Klucel (hydroxypropylcellulose) (HPC)): 100 % of control
T/C (dose: 12.5 mg/kg/injection, schedule: Q01DX005 (ip), vehicle: Klucel (hydroxypropylcellulose) (HPC)): 94 % of control
T/C (dose: 25.0 mg/kg/injection, schedule: Q01DX005 (ip), vehicle: Klucel (hydroxypropylcellulose) (HPC)): 86 % of control

Nc1nc[nH]c1-c1noc(=O)[nH]1
T/C (dose: 12.5 mg/kg/injection, schedule: Q01DX009 (ip), vehicle: saline): 102 % of control
T/C (dose: 25.0 mg/kg/injection, schedule: Q01DX009 (ip), vehicle: saline): 108 % of control
T/C [4]: 104 % of control and 112 % of control
T/C [5]: 110 % of control

CC(C)(C)C(=O)CC(=O)C(F)(F)C(F)(F)C(F)(F)F.CC(C)(C)C(=O)CC(=O)C(F)(F)C(F)(F)C(F)(F)F.CC(C)(C)C(=O)CC(=O)C(F)(F)C(F)(F)C(F)(F)F.[Ho]
T/C [2]: 111 % of control
T/C [3]: 110 % of control

COc1cc(C(=O)NNC(=O)C2CCC(=O)N2Cc2ccccc2)cc(OC)c1OC (centres undefined)
T/C [1]: 89 % of control
T/C [2]: 90 % of control
T/C [3]: 87 % of control

NC(=O)c1ccccc1NC(=O)CCCC(=O)O
T/C [4]: 98 % of control
T/C [5]: 108 % of control
T/C (dose: 200.0 mg/kg/injection, schedule: Q01DX009 (ip), vehicle: saline): 97 % of control

NC(CCC(=O)NC(CS)C(=O)O)C(=O)O (centres undefined)
T/C [4]: 100 % of control
T/C [5]: 111 % of control
